# Target: Matrix metalloproteinase-9 (Homo sapiens, UniProt P14780);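 note: inhibition of isolated MMP-9 enzyme activity toward a synthetic peptide substrate, from the DrugMatrix protease screening panel; in other assays of this panel Not Active means under 50% inhibition at 10 µM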
# Assay type: cell-based
# Details: not given
# Matrix metalloproteinase-9, sequence (P14780 whole entry): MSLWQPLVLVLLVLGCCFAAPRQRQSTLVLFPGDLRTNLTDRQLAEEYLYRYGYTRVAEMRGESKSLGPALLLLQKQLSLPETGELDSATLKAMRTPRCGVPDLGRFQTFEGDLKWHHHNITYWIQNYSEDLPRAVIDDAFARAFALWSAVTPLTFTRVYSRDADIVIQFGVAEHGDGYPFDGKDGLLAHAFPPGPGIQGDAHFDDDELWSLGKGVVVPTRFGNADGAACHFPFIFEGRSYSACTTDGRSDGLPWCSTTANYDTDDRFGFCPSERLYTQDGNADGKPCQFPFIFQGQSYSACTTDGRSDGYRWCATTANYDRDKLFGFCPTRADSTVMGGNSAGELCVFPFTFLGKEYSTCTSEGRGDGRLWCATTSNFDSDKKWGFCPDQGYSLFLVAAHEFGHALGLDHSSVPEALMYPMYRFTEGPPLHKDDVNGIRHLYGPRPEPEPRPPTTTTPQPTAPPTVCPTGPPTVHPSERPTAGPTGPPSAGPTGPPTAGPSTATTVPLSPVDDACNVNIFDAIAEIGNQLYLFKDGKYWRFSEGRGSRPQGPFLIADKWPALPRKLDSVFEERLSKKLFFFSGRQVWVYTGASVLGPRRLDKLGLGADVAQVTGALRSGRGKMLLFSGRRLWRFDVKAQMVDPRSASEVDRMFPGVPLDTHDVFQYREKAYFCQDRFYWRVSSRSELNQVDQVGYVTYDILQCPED
row,SMILES,IC50
1,O=C(O)CCNC(=O)c1ccc(/N=N/c2ccc(O)c(C(=O)O)c2)cc1 [BALSALAZIDE],Not Active
2,COc1cc(OC)c(C(=O)CCCN2CCCC2)c(OC)c1 [BUFLOMEDIL],Not Active
3,Cn1c(=O)c2c(ncn2C)n(C)c1=O [CAFFEINE],Not Active
4,ClC(Cl)(Cl)Cl [CARBON TETRACHLORIDE],Not Active

# Target: Substance-P receptor (Homo sapiens, UniProt P25103); note: in other assays of this panel Not Active means under 50% inhibition at 10 µM
# Sequence (P25103 whole entry): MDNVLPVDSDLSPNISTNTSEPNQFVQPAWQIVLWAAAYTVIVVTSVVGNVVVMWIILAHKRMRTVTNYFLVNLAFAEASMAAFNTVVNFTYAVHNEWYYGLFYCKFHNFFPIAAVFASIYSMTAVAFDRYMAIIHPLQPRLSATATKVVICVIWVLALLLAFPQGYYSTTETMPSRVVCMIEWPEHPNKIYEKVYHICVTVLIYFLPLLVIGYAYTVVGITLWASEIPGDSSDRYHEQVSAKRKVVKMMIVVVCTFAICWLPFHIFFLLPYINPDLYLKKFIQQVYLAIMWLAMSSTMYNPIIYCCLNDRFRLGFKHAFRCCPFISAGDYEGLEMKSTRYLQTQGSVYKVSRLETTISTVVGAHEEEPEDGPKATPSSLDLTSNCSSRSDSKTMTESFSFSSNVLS
# Assay type: cell membranes, CHO, Membrane
# Details: cho
row,SMILES,IC50
1,O=C(O)CCNC(=O)c1ccc(/N=N/c2ccc(O)c(C(=O)O)c2)cc1 [BALSALAZIDE],Not Active
2,COc1cc(OC)c(C(=O)CCCN2CCCC2)c(OC)c1 [BUFLOMEDIL],Not Active
3,Cn1c(=O)c2c(ncn2C)n(C)c1=O [CAFFEINE],Not Active
4,ClC(Cl)(Cl)Cl [CARBON TETRACHLORIDE],Not Active

# Target: Insulin receptor (Rattus norvegicus, UniProt P15127); note: in other assays of this panel Not Active means under 50% inhibition at 10 µM
# Sequence (P15127 27-759 limits assumed): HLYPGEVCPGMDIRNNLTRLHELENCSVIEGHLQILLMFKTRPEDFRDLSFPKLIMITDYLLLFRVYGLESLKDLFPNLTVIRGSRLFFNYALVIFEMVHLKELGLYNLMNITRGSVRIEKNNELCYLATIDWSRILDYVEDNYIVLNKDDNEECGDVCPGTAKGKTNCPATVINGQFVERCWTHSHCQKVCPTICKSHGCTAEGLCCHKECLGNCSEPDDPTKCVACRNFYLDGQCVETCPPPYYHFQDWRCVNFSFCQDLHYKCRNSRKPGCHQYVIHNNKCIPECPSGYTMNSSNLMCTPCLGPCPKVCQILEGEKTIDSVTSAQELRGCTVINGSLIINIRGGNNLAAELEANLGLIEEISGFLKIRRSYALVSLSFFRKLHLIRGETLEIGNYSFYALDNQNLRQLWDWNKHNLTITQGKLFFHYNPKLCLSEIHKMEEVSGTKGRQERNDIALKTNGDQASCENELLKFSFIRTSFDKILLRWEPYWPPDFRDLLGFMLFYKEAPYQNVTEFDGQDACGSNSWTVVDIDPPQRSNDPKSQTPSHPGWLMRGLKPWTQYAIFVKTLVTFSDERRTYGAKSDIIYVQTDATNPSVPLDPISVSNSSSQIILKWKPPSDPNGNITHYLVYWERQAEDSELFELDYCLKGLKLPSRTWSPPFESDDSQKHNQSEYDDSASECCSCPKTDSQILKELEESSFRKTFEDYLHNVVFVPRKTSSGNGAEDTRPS
# Sequence (P15127 764-1383 limits assumed): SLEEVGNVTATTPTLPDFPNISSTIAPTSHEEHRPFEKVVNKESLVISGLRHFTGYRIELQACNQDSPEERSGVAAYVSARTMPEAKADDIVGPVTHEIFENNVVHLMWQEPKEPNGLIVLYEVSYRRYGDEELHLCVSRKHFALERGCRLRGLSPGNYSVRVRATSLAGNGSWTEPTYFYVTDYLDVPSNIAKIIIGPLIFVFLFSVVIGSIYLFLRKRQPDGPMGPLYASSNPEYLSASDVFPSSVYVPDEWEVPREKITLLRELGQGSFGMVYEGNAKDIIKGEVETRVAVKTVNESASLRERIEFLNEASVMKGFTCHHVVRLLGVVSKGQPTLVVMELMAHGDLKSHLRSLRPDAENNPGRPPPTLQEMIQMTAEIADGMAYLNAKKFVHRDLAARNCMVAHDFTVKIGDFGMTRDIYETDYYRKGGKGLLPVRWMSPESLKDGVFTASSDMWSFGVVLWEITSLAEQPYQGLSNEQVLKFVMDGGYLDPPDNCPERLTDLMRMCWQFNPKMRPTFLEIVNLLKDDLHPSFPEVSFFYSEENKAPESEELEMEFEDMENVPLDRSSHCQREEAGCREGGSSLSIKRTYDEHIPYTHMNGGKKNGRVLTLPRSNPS
# Assay type: cell membranes, Wistar, Liver, Membrane
# Details: not given
row,SMILES,IC50
1,O=C(O)CCNC(=O)c1ccc(/N=N/c2ccc(O)c(C(=O)O)c2)cc1 [BALSALAZIDE],Not Active
2,COc1cc(OC)c(C(=O)CCCN2CCCC2)c(OC)c1 [BUFLOMEDIL],Not Active
3,Cn1c(=O)c2c(ncn2C)n(C)c1=O [CAFFEINE],Not Active
4,ClC(Cl)(Cl)Cl [CARBON TETRACHLORIDE],Not Active

# Target: Protein kinase C alpha type (Homo sapiens, UniProt P17252);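 note: inhibition of PKCalpha kinase activity measured in an enzyme assay with histone as the phosphorylation substrate; in other assays of this panel Not Active means under 50% inhibition at 10 µM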
# Assay type: cell-based
# Details: sf9
row,SMILES,IC50
1,O=C(O)CCNC(=O)c1ccc(/N=N/c2ccc(O)c(C(=O)O)c2)cc1 [BALSALAZIDE],Not Active
2,COc1cc(OC)c(C(=O)CCCN2CCCC2)c(OC)c1 [BUFLOMEDIL],Not Active
3,Cn1c(=O)c2c(ncn2C)n(C)c1=O [CAFFEINE],Not Active
4,ClC(Cl)(Cl)Cl [CARBON TETRACHLORIDE],Not Active

# Target: T1, Muscarinic acetylcholine receptor M2 (Homo sapiens, UniProt P08172); note: in other assays of this panel Not Active means under 50% inhibition at 10 µM
# T1 sequence (P08172 whole entry): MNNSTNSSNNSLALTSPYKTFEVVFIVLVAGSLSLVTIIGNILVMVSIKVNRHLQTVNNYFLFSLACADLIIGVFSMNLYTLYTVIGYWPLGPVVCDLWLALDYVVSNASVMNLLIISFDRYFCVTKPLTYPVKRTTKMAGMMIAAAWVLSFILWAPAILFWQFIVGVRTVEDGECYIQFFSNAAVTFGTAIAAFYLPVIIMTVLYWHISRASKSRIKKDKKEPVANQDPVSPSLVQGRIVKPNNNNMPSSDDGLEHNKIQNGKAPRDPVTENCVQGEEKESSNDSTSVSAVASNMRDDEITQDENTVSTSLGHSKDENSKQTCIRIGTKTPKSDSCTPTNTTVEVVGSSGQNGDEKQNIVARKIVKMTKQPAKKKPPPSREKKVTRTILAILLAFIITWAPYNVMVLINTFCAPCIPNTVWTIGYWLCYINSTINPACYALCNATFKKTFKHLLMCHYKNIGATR
# Assay type: cell membranes, CHO-K1, Membrane
# Details: cho-k1
row,SMILES,IC50
1,O=C(O)CCNC(=O)c1ccc(/N=N/c2ccc(O)c(C(=O)O)c2)cc1 [BALSALAZIDE],Not Active
2,COc1cc(OC)c(C(=O)CCCN2CCCC2)c(OC)c1 [BUFLOMEDIL],Not Active
3,Cn1c(=O)c2c(ncn2C)n(C)c1=O [CAFFEINE],Not Active
4,ClC(Cl)(Cl)Cl [CARBON TETRACHLORIDE],Not Active

# Test system: not listed separately
# Experiment: DRUGMATRIX: Glutamate, Kainate radioligand binding (ligand: [3H] Kainic acid)
# Assay type: cell membranes, Rattus norvegicus, Wistar, Brain, Membrane
# Details: Not Active = under 50% inhibition at 10 µM
SMILES,IC50,Ki
O=C(O)CCNC(=O)c1ccc(/N=N/c2ccc(O)c(C(=O)O)c2)cc1 [BALSALAZIDE],Not Active,Not Active
COc1cc(OC)c(C(=O)CCCN2CCCC2)c(OC)c1 [BUFLOMEDIL],Not Active,Not Active
Cn1c(=O)c2c(ncn2C)n(C)c1=O [CAFFEINE],Not Active,Not Active
ClC(Cl)(Cl)Cl [CARBON TETRACHLORIDE],Not Active,Not Active

# Target: T2, 3-hydroxy-3-methylglutaryl-coenzyme A reductase (Homo sapiens, UniProt P04035)
# T2 sequence (P04035 whole entry): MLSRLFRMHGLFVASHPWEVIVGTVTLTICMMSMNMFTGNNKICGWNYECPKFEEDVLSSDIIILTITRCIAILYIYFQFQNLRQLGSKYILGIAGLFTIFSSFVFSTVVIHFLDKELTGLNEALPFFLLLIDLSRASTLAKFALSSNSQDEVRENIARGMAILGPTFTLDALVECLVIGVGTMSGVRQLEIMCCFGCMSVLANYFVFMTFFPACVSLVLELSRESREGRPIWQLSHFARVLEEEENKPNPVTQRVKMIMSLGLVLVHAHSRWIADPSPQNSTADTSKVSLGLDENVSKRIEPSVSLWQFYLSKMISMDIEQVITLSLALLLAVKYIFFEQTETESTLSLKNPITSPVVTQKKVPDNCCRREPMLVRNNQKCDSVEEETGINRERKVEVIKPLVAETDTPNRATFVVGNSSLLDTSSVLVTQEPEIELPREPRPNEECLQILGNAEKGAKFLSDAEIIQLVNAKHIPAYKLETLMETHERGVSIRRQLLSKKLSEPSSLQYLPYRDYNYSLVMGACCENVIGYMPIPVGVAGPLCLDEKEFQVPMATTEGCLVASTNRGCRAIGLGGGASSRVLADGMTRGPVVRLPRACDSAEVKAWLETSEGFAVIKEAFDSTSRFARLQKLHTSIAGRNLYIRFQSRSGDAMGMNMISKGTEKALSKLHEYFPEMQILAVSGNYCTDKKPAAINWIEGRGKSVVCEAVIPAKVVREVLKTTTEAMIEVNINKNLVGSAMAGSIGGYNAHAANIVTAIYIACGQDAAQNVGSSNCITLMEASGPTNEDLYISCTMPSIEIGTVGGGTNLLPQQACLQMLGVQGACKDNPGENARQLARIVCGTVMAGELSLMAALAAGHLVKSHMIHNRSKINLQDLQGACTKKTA
# Set-up: species or system Escherichia coli
# Details: not given
row,SMILES,IC50
1,O=C(O)CCNC(=O)c1ccc(/N=N/c2ccc(O)c(C(=O)O)c2)cc1 [BALSALAZIDE],Not Active
2,COc1cc(OC)c(C(=O)CCCN2CCCC2)c(OC)c1 [BUFLOMEDIL],Not Active
3,Cn1c(=O)c2c(ncn2C)n(C)c1=O [CAFFEINE],Not Active
4,ClC(Cl)(Cl)Cl [CARBON TETRACHLORIDE],Not Active

# Test system: not listed separately
# Experiment: DRUGMATRIX: Tumor Necrosis Factor (TNF), Non-Selective radioligand binding (ligand: [125I] TNF-alpha)
# Assay type: cell membranes, Membrane
# Details: u-937; Not Active = under 50% inhibition at 10 µM
SMILES,IC50,Ki
O=C(O)CCNC(=O)c1ccc(/N=N/c2ccc(O)c(C(=O)O)c2)cc1 [BALSALAZIDE],Not Active,Not Active
COc1cc(OC)c(C(=O)CCCN2CCCC2)c(OC)c1 [BUFLOMEDIL],Not Active,Not Active
Cn1c(=O)c2c(ncn2C)n(C)c1=O [CAFFEINE],Not Active,Not Active
ClC(Cl)(Cl)Cl [CARBON TETRACHLORIDE],Not Active,Not Active

# Target: T3, Caspase-1 (Homo sapiens, UniProt P29466)
# T3 sequence (P29466 whole entry): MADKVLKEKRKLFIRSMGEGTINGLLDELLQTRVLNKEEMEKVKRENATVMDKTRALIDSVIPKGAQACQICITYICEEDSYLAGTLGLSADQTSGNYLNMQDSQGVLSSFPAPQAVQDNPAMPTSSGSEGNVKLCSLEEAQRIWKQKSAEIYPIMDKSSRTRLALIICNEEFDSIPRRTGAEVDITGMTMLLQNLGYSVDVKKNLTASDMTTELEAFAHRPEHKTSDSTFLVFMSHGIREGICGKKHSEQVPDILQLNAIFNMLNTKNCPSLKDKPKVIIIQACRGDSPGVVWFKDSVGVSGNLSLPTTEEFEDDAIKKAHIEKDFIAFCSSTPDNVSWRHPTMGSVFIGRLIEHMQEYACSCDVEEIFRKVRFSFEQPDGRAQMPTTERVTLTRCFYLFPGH
# Set-up: species or system Escherichia coli
# Details: not given
row,SMILES,IC50
1,O=C(O)CCNC(=O)c1ccc(/N=N/c2ccc(O)c(C(=O)O)c2)cc1 [BALSALAZIDE],Not Active
2,COc1cc(OC)c(C(=O)CCCN2CCCC2)c(OC)c1 [BUFLOMEDIL],Not Active
3,Cn1c(=O)c2c(ncn2C)n(C)c1=O [CAFFEINE],Not Active
4,ClC(Cl)(Cl)Cl [CARBON TETRACHLORIDE],Not Active
